According to patent publication US12698258B2, “Cystine cationic lipids” (Translate Bio, Inc., priority 2019, dated 2026):

Test system: hEPO protein expression
Experiment: In vivo expression of hEPO after IM injection of lipid nanoparticle formulations with hEPO mRNA
Design: species or system BALB/c mice
Settings: lipid nanoparticles comprising the compound and hEPO mRNA; single intramuscular injection, 0.1 ug; hEPO in sera by ELISA; 24 hours after administration
Method: In embodiments, cationic lipids described herein can be used in the preparation of lipid nanoparticles according to methods known in the art. For example, suitable methods include methods described in international Publication No. WO 2018/089801, which is hereby incorporated by reference in its entirety.
Lipid nanoparticle formulations comprising human erythropoietin (hEPO) mRNA, Cationic Lipid, DMG-PEG2000, Cholesterol and DOPE were administered intramuscularly to study mRNA delivery and resultant hEPO expression. Male BALB/c mice at 6-8 weeks old are given a single injection of the LNP formulations into the gastrocnemius muscle at a dosage level of 0.1 ug. Blood samples were collected at 6 and 24 hours post-dose. hEPO protein expression levels were measured in the sera samples by ELISA and presented in FIG. 1.

SMILES | in vivo protein production resulting from the delivery of mRNA (FIG. 1)
CCCCCCCC(C)COC(=O)CCN(CCC(=O)OCCCCCCCC(C)C)[C@@H](CSSC[C@@H](C(=O)OC(C)CN(CCCN(C)C)CCCN(C)C)N(CCC(=O)OCCCCCCCC(C)C)CCC(=O)OCC(C)CCCCCCC)C(=O)OC(C)CN(CCCN(C)C)CCCN(C)C (some centres unmarked) [Compound 3] | high levels of in vivo protein production
CCCCCCCC(C)COC(=O)CCN(CCC(=O)OCCCCCCCC(C)C)[C@@H](CSSC[C@@H](C(=O)OCCOCCOCCOC)N(CCC(=O)OCCCCCCCC(C)C)CCC(=O)OCC(C)CCCCCCC)C(=O)OCCOCCOCCOC (some centres unmarked) [Compound 4] | high levels of in vivo protein production
